This note sets out measurements from patent US7151105B2, “Inhibitors of Hepatitis C virus RNA-dependent RNA polymerase, and compositions and treatments using the same” (Agouron Pharmaceuticals, Inc., priority 2004, dated 2006).

T1 sequence (P26663 2420-3010): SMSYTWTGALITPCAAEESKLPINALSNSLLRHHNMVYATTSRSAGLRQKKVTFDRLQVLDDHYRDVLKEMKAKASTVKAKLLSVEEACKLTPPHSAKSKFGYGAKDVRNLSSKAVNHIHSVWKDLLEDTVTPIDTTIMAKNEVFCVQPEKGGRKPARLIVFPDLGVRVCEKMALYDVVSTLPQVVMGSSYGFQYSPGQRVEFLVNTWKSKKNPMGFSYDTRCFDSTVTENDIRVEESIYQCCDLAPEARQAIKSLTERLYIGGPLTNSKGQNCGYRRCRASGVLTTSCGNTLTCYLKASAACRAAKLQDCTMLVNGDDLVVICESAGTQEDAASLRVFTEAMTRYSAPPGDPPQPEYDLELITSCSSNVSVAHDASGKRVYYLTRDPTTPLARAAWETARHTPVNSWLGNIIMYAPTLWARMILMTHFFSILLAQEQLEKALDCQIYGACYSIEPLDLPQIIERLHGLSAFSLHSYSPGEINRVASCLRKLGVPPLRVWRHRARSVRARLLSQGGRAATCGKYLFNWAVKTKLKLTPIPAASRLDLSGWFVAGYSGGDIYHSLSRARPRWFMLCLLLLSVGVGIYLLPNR

The first assay addresses T1, Recombinant HCV polymerase (Hepatitis C virus genotype 1b, UniProt P26663).
T1 construct: Recombinant HCV polymerase was tested for its ability to perform primer/template-directed transcription
Kind of assay: biochemical. The conditions noted are these: inhibition of polymerase-directed transcription; 30 min at 30° C; 30 nM enzyme; cpm data in triplicate. The procedure, abridged: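 Primer/template-directed RNA synthesis by 2.5 pmol HCV polymerase on poly(rC)300/biotin-dG12 with 1 μM GTP plus α-32P-GTP, in pH 7.2 Tris buffer with 10 mM MgCl2, for 30 min at 30 °C. Products were filter-captured and counted, with 1% DMSO final. IC50 was fitted from triplicate cpm; percent inhibition was reported where IC50 was impractical.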
In the case of `CCc1cc(CCC2(C3CCCC3)CC(O)=C(Cc3nc4nc(C)cc(C)n4n3)C(=O)O2)c(OC)cc1OC` (stereo not shown) [A(24), 6-Cyclopentyl-3-[(5,7-dimethyl[1,2,4]triazolo[1,5-a]pyrimidin-2-yl)methyl]-6-[2-(5-ethyl-2,4-dimethoxyphenyl)ethyl]-4-hydroxy-5,6-dihydro-2H-pyran-2-one], the IC50 (in general, the concentration needed to halve the response being measured) was 14 nM. In the case of `COc1cnc(C)cc1CCC1(C2CCCC2)CC(=O)CC(=O)O1` (stereo not shown) [A(7), 6-Cyclopentyl-6-[2-(5-methoxy-2-methylpyridin-4-yl)ethyl]dihydro-2H-pyran-2,4(3H)dione], the IC50 is 11300 nM. Regarding `Cc1cc(C)n2nc(CC3=C(O)CC(CCc4ccc(O)c(C(F)(F)F)c4)(C4CCCC4)OC3=O)nc2n1` (stereo not shown) [A(28), 6-Cyclopentyl-3-[(5,7-dimethyl[1,2,4]triazolo[1,5-a]pyrimidin-2-yl)methyl]-4-hydroxy-6-{2-[4-hydroxy-3-(trifluoromethyl)phenyl]ethyl}-5,6dihydro-2H-pyran-2-one], the half-maximal inhibitory concentration (IC50) worked out at 2 nM. For `CC(C)(C#N)c1ncc(CCC2(C3CCCC3)CC(=O)CC(=O)O2)cc1Cl` (stereo not shown) [B(29), 2-{3-Chloro-5-[2-(2-cyclopentyl-4,6-dioxotetrahydro-2H-pyran-2-yl)ethyl]pyridin-2-yl}-2-methylpropanenitrile], the IC50 is 5200 nM. Take `CCCOc1cnc(CC)cc1CCC1(C2CCCC2)CC(O)=C(Cc2nc3nc(C)cc(C)n3n2)C(=O)O1` (single isomer, unassigned) [A(54), 6-Cyclopentyl-3-[(5,7-dimethyl[1,2,4]triazolo[1,5-a]pyrimidin-2-yl)methyl]-6-[2-(2-ethyl-5-propoxypyridin-4-yl)ethyl]-4-hydroxy-5,6-dihydro-2H-pyran-2-one]: the IC50 is 3 nM. For the compound `CCc1cc(CCC2(C3CCCC3)CC(O)=C(Cc3nc4nc(C)cc(C)n4n3)C(=O)O2)ccc1CC#N` (single isomer, unassigned; enantiomer 2) [A(117), Enantiomer 2 of [4(2-{2-Cyclopentyl-5[(5,7-dimethyl[1,2,4]triazolo[1,5-a]pyrimidin-2-yl)methyl]-4-hydroxy-6-oxo-3,6dihydro-2H-pyran-2-yl}ethyl)-2-ethylphenyl]acetonitrile], the IC50 came to 5 nM. As for `CCc1cc(CCC2(C3CCCC3)CC(=O)CC(=O)O2)ccc1-c1ncco1` (stereo not shown) [A(135), 6-Cyclopentyl-6-{2-[3-ethyl-4-(1,3-oxazol-2-yl)phenyl]ethyl}dihydro-2H-pyran-2,4(3H)-dione], the IC50 is 210 nM. Turning to `CCC(C#N)(CC)c1ccc(CCC2(C3CCCC3)CC(O)=C(Cc3nc4nc(C)cc(C)n4n3)C(=O)O2)cc1C(F)(F)F` (single isomer, unassigned) [A(155), 2-[4-(2-{2-Cyclopentyl-5-[(5,7-dimethyl[1,2,4]triazolo[1,5-a]pyrimidin-2-yl)methyl]-4-hydroxy-6-oxo-3,6-dihydro-2H-pyran-2-yl}ethyl)-2-(trifluoromethyl)phenyl]-2-ethylbutanenitrile], the IC50 was determined as 54 nM.

As for `CCOc1cnc(CC)cc1CCC1(C2CCCC2)CC(O)=C(Cc2nc3ncc(C)cn3n2)C(=O)O1` (stereo not shown) [A(43), 6-Cyclopentyl-6-[2-(5-ethoxy-2-ethylpyridin-4-yl)ethyl]-4-hydroxy-3-[(6-methyl[1,2,4]triazolo[1,5-a]pyrimidin-2-yl)methyl]-5,6-dihydro-2H-pyran-2-one], the IC50 amounted to 8 nM. For the compound `CCc1cc(CCC2(C3CCCC3)CC(O)=C(Cc3nc4nc(C)cc(C)n4n3)C(=O)O2)ccc1OCCNC` (stereo not shown) [A(72), 6-Cyclopentyl-3-[(5,7-dimethyl[1,2,4]triazolo[1,5-a]pyrimidin-2-yl)methyl]-6-(2-{3-ethyl-4-[2-(methylamino)ethoxy]phenyl}ethyl)-4-hydroxy-5,6-dihydro-2H-pyran-2-one], the IC50 is 8 nM. On to `CCc1ccnc(CCC2(C3CCCC3)CC(O)=C(Cc3nc4nc(C)cc(C)n4n3)C(=O)O2)c1` (stereo not shown) [A(15), 6-Cyclopentyl-3-[(5,7-dimethyl[1,2,4]triazolo[1,5-a]pyrimidin-2-yl)methyl]-6-[2-(4-ethylpyridin-2-yl)ethyl]-4-hydroxy-5,6-dihydro-2H-pyran-2-one], for which the IC50 came to 7 nM. Turning to `CCc1cc(CCC2(C3CCCC3)CC(O)=C(Cc3nc4nc(C)cc(C)n4n3)C(=O)O2)ccc1C(=O)OC` (stereo not shown) [A(118), Methyl 4-(2-{2-cyclopentyl-5-[(5,7-dimethyl[1,2,4]triazolo[1,5a]pyrimidin-2-yl)methyl]-4-hydroxy-6oxo-3,6-dihydro-2H-pyran-2-yl}ethyl)-2-ethylbenzoate], the half-inhibitory concentration (IC50) was 7 nM. `CCc1cc(CCC2(C3CCCC3)CC(O)=C(Cc3nc4nc(C)cc(C)n4n3)C(=O)O2)ccc1CC#N` (stereo not shown) [A(101), [4-(2-{2-Cyclopentyl-5-[(5,7-dimethyl[1,2,4]triazolo[1,5-a]pyrimidin-2-yl)methyl]-4-hydroxy-6-oxo-3,6-dihydro-2H-pyran-2-yl}ethyl)-2-ethylphenyl]acetonitrile]: the half-inhibitory concentration (IC50) stood at 8 nM. For `Cc1cnc2nc(CC3=C(O)CC(CCc4cc(CC(F)(F)F)nc(CC(F)(F)F)c4)(C4CCCC4)OC3=O)nn2c1` (stereo not shown) [A(48), 6-{2-[2,6-Bis(2,2,2-trifluoroethyl)pyridin-4-yl]ethyl}-6-cyclopentyl-4-hydroxy-3-[(6-methyl[1,2,4]triazolo[1,5-a]pyrimidin-2-yl)methyl]-5,6-dihydro-2H-pyran-2-one], the IC50 amounted to 23 nM. `Cc1cc(C)n2nc(CC3=C(O)CC(CCc4ccc(O)c(CC(F)(F)F)c4)(C4CCCC4)OC3=O)nc2n1` (single isomer, unassigned) [A(75), 6-cyclopentyl-3-[(5,7-dimethyl[1,2,4]triazolo[1,5-a]pyrimidin-2-yl)methyl]-4-hydroxy-6-{2-[4-hydroxy-3-(2,2,2-trifluoroethyl)phenyl]ethyl}-5,6-dihydro-2H-pyran-2-one]: the IC50 was 5 nM.

For the compound `Cc1nc(CC2=C(O)CC(CCc3ccc(C(C)(C)C#N)c(F)c3)(C3CCCC3)OC2=O)n(C)n1` (stereo not shown) [A(84), 2-[4-(2-{2-Cyclopentyl-5-[(1,3-dimethyl-1H-1,2,4-triazol-5-yl)methyl]-4-hydroxy-6-oxo-3,6-dihydro-2H-pyran-2-yl}ethyl)-2-fluorophenyl]-2-methylpropanenitrile], the IC50 came to 72 nM. With `CCc1cc(CCC2(C3CCCC3)CC(O)=C(Cc3nc4nc(C)cc(C)n4n3)C(=O)O2)ccc1CN1CCOCC1` (single isomer, unassigned) [A(156), 6-Cyclopentyl-3-[(5,7-dimethyl[1,2,4]triazolo[1,5-a]pyrimidin-2-yl)methyl]-6-{2-[3-ethyl-4-(morpholin-4-ylmethyl)phenyl]ethyl}-4-hydroxy-5,6-dihydro-2H-pyran-2-one], the IC50 came out at 5 nM. Regarding `CCc1cc(CCC2(C3CCCC3)CC(O)=C(Cc3nc4nc(C)cc(C)n4n3)C(=O)O2)ccc1OCCNC(=O)OC(C)(C)C` (stereo not shown) [A(70), tert-Butyl 2-[4-(2-{2-cyclopentyl-5-[(5,7-dimethyl[1,2,4]triazolo[1,5-a]pyrimidin-2-yl)methyl]-4-hydroxy-6-oxo-3,6-dihydro-2H-pyran-2-yl}ethyl)-2-ethylphenoxy]ethylcarbamate], the IC50 was 14 nM. In the case of `CCc1cc(CCC2(C3CCCC3)CC(O)=C(Cc3nc4nc(C)cc(C)n4n3)C(=O)O2)c(C)nc1N` (stereo not shown) [A(124), 6-[2-(6-Amino-5-ethyl-2-methylpyridin-3-yl)ethyl]-6-cyclopentyl-3-[(5,7-dimethyl[1,2,4]triazolo[1,5-a]pyrimidin-2-yl)methyl]-4-hydroxy-5,6-dihydro-2H-pyran-2-one], the IC50 amounted to 8 nM. Take `CCc1cc(CCC2(C3CCCC3)CC(O)=C(Cc3nc4nc(C)cc(C)n4n3)C(=O)O2)ccc1C(=O)NC` (stereo not shown) [A(121), 4-(2-{2-cyclopentyl-5-[(5,7-dimethyl[1,2,4]triazolo[1,5-a]pyrimidin-2-yl)methyl]-4-hydroxy-6-oxo-3,6-dihydro-2H-pyran-2-yl}ethyl)-2-ethyl-N-methylbenzamide]: the IC50 came to 6 nM.

Turning to `CCc1cc(CCC2(C3CCCC3)CC(O)=C(Cc3nc4ncc(C)cn4n3)C(=O)O2)ccc1Cn1cccn1` (stereo not shown) [A(113), 6-Cyclopentyl-6-{2-[3-ethyl-4-(1H-pyrazol-1-ylmethyl)phenyl]ethyl}-4-hydroxy-3-[(6-methyl[1,2,4]triazolo[1,5-a]pyrimidin-2-yl)methyl]-5,6-dihydro-2H-pyran-2-one], the concentration for half-maximal inhibition (IC50) was 7 nM.

`CCc1cc(CCC2(C3CCCC3)CC(O)=C(Cc3nc4nc(C)cc(C)n4n3)C(=O)O2)ccc1Cn1cncn1` (stereo not shown) [A(110), 6-Cyclopentyl-3-[(5,7-dimethyl[1,2,4]triazolo[1,5-a]pyrimidin-2-yl)methyl]-6-{2-[3-ethyl-4-(1H-1,2,4-triazol-1-ylmethyl)phenyl]ethyl}-4-hydroxy-5,6-dihydro-2H-pyran-2-one]: the IC50 is 6 nM. On to `COC(=O)c1ccc(CCC2(C3CCCC3)CC(O)=C(Cc3nc4nc(C)cc(C)n4n3)C(=O)O2)cc1Cl` (stereo not shown) [B(9), Methyl 2-chloro-4-(2-{2-cyclopentyl-5-[(5,7-dimethyl[1,2,4]triazolo[1,5-a]pyrimidin-2-yl)methyl]-4-hydroxy-6-oxo-3,6-dihydro-2H-pyran-2-yl}ethyl)benzoate], for which the 50% inhibitory concentration (IC50) turned out to be 6 nM. The same measure, in the same setting: for `COc1cc(OC)c(CCC2(C3CCCC3)CC(O)=C(Cc3nc(-c4ccccn4)nn3C)C(=O)O2)cc1Cl` (stereo not shown) [B(16), 6-[2-(5-Chloro-2,4-dimethoxyphenyl)ethyl]-6-cyclopentyl-4-hydroxy-3-[(1-methyl-3-pyridin-2-yl-1H-1,2,4-triazol-5-yl)methyl]-5,6-dihydro-2H-pyran-2-one] the value was 53 nM.

The same assay, now with this note: read-out: % inh @ 50 uM.
As to `CCc1cc(CCC2(C3CCCC3)CC(=O)CC(=O)O2)c(OC)cc1OCCN(C)C(=O)OC(C)(C)C` (stereo not shown) [A(73), tert-Butyl 2-{4-[2-(2-cyclopentyl-4,6-dioxotetrahydro-2H-pyran-2-yl)ethyl]-2-ethyl-5-methoxyphenoxy}ethyl(methyl)carbamate], the inhibition at 50 µM came to 19%.
